Like-named read-outs stand apart in the source and are kept apart here.
Columns and labels:
tremor in mice = assay: Induction of tremor in mice; settings: sc
[1] = target: T1, M1-receptor of rat cerebral cortex (Rattus norvegicus, UniProt P08482); assay: Affinity for muscarinic receptor: [3H]pirenzepine binding to M1-receptor of rat cerebral cortex
T1 construct: M1 -receptor of rat cerebral cortex; from tissue; host or cells: rat cerebral cortex (membranes of rat brain)
T1 sequence (P08482 1-460): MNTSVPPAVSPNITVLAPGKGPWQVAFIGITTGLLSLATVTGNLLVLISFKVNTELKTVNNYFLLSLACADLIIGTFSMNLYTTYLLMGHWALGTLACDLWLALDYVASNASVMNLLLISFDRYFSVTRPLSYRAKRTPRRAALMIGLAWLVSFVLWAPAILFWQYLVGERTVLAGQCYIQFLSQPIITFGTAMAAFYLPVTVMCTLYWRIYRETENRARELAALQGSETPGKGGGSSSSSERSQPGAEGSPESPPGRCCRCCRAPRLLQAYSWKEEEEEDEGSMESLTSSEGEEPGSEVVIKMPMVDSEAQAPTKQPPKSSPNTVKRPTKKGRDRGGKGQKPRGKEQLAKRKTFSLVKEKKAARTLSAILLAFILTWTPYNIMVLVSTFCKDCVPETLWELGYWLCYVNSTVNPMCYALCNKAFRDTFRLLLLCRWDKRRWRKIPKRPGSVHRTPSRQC

[2] = target: M2-receptor of rat cerebellum (Rattus norvegicus, UniProt P10980); assay: biochemical; type: binding
M2-receptor of rat cerebellum, sequence (P10980 whole entry): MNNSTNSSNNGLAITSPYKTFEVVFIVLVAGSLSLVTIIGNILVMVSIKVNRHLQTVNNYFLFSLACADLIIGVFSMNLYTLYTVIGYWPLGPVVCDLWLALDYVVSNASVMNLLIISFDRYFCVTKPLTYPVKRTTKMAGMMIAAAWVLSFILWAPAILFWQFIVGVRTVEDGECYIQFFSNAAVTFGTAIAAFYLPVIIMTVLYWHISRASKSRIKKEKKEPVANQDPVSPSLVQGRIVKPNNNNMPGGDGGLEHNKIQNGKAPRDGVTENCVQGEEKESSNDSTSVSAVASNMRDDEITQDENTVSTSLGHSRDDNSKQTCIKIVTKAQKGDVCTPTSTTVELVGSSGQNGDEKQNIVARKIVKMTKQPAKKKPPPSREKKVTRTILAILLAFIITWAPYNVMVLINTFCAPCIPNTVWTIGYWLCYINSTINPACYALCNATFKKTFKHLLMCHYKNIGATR

| Structure (SMILES) | Dose, the effect of the above 2) (minimum effective dose for causing tremor) (tremor in mice) | IC50 [1] | IC50 [2] | IC50 ([1]; [3H]pirenzepine, M1-receptor, rat cerebral cortex, read-out: Receptor-affinity IC50, Pirenzepine binding) |
| --- | --- | --- | --- | --- |
| CC1OC2(CN3CCC2CC3)CC12SCCS2 (single isomer, unassigned) [Example 33, 5'-Methyl-dispiro[1-azabicyclo[2.2.2]octane-3,2'-oxolane-4',2"-[1.3]dithiolane]] | > 30 mg/kg | 17 nM | 310 nM |  |
| COC(=O)C1=CCCN(C)C1 [Arecoline, reference compound] | 5 mg/kg |  |  |  |
| C=C1CC2(CCN(C)CC2)OC1C (centres unmarked) [Example 5, 2,8-dimethyl-3-methylene-1-oxa-8-azaspiro[4,5]decane] | > 30 mg/kg | 3320 nM | 25100 nM |  |
| CCC1OC2(CCN(C)CC2)CC1=O (centres unmarked) [Example 15, 2-ethyl-8-methyl-1-oxa-8-azaspiro[4.5]decan-3-one] | > 30 mg/kg |  |  |  |
| CC1SC2(CCN(C)CC2)CC12SCCS2 (centres unmarked) [Example 22, 10,14-Dimethyl-1,4,13-trithia-10-azadispiro[4.1.5.2]tetradecane] | > 30 mg/kg | 39 nM | 710 nM |  |
| CCC1OC2(CCN(C)CC2)CC12OCCS2 (centres unmarked) [Example 29, 14-ethyl-10-methyl-1,13-dioxa-4-thia-10-azadispiro[4.1.5.2]tetradecane] | > 30 mg/kg | 49 nM | 640 nM |  |
| C=C1CC2(CCN(C)CC2)OC1CC (centres unmarked) [Example 36, 2-Ethyl-8-methyl-3-methylene-1-oxa-8-azaspiro[4.5]decane] | > 30 mg/kg |  | 8960 nM | 1260 nM |
| O=C1CCCN1CC#CCN1CCCC1 [Oxotremorine, reference compound] | 0.2 mg/kg | 68 nM | 4.9 nM |  |

From patent publication US5041549A, “Heterocyclic spiro compounds and methods for preparing the same” (Yamanouchi Pharmaceutical Co., Ltd., priority 1987, dated 1991)
